# Experimental data reported in ChEMBL document CHEMBL3751784, “Synthesis of novel 1-substituted triazole linked 1,2-benzothiazine 1,1-dioxido propenone derivatives as potent anti-inflammatory agents and inhibitors of monocyte-to-macrophage differentiation” (2015).
# The source made the active and inactive calls. The calls are words filed in the database; no cut-off is given here.
# Assays:
# [1] = Cytotoxicity against human THP1 cells assessed as cell viability at 20 uM after 48 hrs by tryphan blue dye exclusion assay relative to control; type: functional; conditions: THP-1, 48 h, read-out: Activity
# [2] = Antiinflammatory activity in human THP1 cells assessed as inhibition of PMA-induced IL-1beta secretion at 10 uM preincubated for 2 hrs followed by PMA addition measured after 48 hrs by ELISA; type: functional; conditions: THP-1
# [3] = test system: THP-1; assay: (§1) Antiinflammatory activity in human THP1 cells assessed as inhibition of PMA-induced TNFalpha secretion at 10 uM preincubated for 2 hrs followed by PMA addition measured after 48 hrs by ELISA; type: functional
# [4] = (§2) Antiinflammatory activity in human THP1 cells assessed as inhibition of PMA-induced MCP-1 secretion at 10 uM preincubated for 2 hrs followed by PMA addition measured after 48 hrs by ELISA; type: functional; conditions: THP-1
# [5] = as §1; type: functional; conditions: THP-1
# [6] = test system: THP-1; assay: Antiinflammatory activity in human THP1 cells assessed as inhibition of PMA-induced TNFalpha secretion preincubated for 2 hrs followed by PMA addition measured after 48 hrs by ELISA; type: functional, cell-based
# [7] = test system: THP-1; assay: Antiinflammatory activity in human THP1 cells assessed as inhibition of PMA-induced MCP-1 secretion preincubated for 2 hrs followed by PMA addition measured after 48 hrs by ELISA; type: functional, cell-based
# [8] = test system: THP-1; assay: Inhibition of PMA-induced monocyte to macrophage differentiation in human THP1 cells assessed as reduction in cell adherence at 20 uM preincubated for 2 hrs followed by PMA addition measured after 48 hrs by phase contrast microscopic analysis; type: functional, cell-based
# [9] = test system: THP-1; assay: Antiinflammatory activity in human THP1 cells assessed as inhibition of PMA-induced IL-1beta secretion preincubated for 2 hrs followed by PMA addition measured after 48 hrs by ELISA; type: functional, cell-based
# [10] = test system: THP-1; assay: Antiinflammatory activity in human THP1 cells assessed as inhibition of PMA-induced COX2 mRNA level preincubated for 2 hrs followed by PMA addition measured after 48 hrs by RT-PCR analysis; type: functional, cell-based
# [11] = test system: THP-1; assay: as §2; type: functional
compound,measurement,setting,value
Cc1ccc(-n2cc(/C=C/C(=O)C3=C(O)c4ccccc4S(=O)(=O)N3C)nn2)cc1,viability at 20 µM,[1],94.3%
same,inhibition at 10 µM,[2],50.2%
same,inhibition,[3],inactive
same,inhibition at 10 µM,[4],45.2%
CN1C(C(=O)/C=C/c2cn(-c3ccc(F)cc3F)nn2)=C(O)c2ccccc2S1(=O)=O,viability at 20 µM,[1],96.2%
same,inhibition at 10 µM,[2],47.7%
same,inhibition at 10 µM,[5],11.2%
same,inhibition at 10 µM,[4],29.6%
CN1C(C(=O)/C=C/c2cn(-c3ccc([N+](=O)[O-])cc3)nn2)=C(O)c2ccccc2S1(=O)=O,viability at 20 µM,[1],93%
same,inhibition at 10 µM,[2],36.5%
same,inhibition,[3],inactive
same,inhibition at 10 µM,[4],31.5%
CN1C(C(=O)/C=C/c2cn(CC(=O)Nc3ccc(C(F)(F)F)cc3)nn2)=C(O)c2ccccc2S1(=O)=O,viability at 20 µM,[1],95.1%
same,inhibition,[6],Dose-dependent effect
same,inhibition,[7],Dose-dependent effect
same,inhibition,[8],inactive
same,inhibition,[9],Dose-dependent effect
same,inhibition,[10],Active
same,inhibition at 10 µM,[2],91.1%
same,inhibition at 10 µM,[5],94.2%
same,inhibition at 10 µM,[4],81.1%
CN1C(C(=O)/C=C/c2cn(CC(=O)Nc3c(F)cccc3F)nn2)=C(O)c2ccccc2S1(=O)=O,viability at 20 µM,[1],95.6%
same,inhibition at 10 µM,[2],46.3%
same,inhibition at 10 µM,[5],31.3%
same,inhibition at 10 µM,[4],41.3%
CN1C(C(=O)Nc2ccccn2)=C(O)c2ccccc2S1(=O)=O [PIROXICAM],inhibition at 10 µM,[2],21.8%
same,inhibition at 10 µM,[5],25.8%
same,inhibition at 10 µM,[4],11.4%
CN1C(C(=O)/C=C/c2cn(CC(=O)NC3CCCCC3)nn2)=C(O)c2ccccc2S1(=O)=O,viability at 20 µM,[1],95.2%
same,inhibition at 10 µM,[2],47.7%
same,inhibition at 10 µM,[5],39.7%
same,inhibition at 10 µM,[4],56.1%
CN1C(C(=O)/C=C/c2cn(-c3cccc(C(F)(F)F)c3)nn2)=C(O)c2ccccc2S1(=O)=O,viability at 20 µM,[1],93.8%
same,inhibition at 10 µM,[2],23.9%
same,inhibition,[3],inactive
same,inhibition,[11],inactive
COc1ccc(-n2cc(/C=C/C(=O)C3=C(O)c4ccccc4S(=O)(=O)N3C)nn2)cc1,viability at 20 µM,[1],94.4%
same,inhibition at 10 µM,[2],53.9%
same,inhibition,[3],inactive
same,inhibition at 10 µM,[4],58.9%
COc1cccc(-n2cc(/C=C/C(=O)C3=C(O)c4ccccc4S(=O)(=O)N3C)nn2)c1,viability at 20 µM,[1],94.2%
same,inhibition at 10 µM,[2],42.6%
same,inhibition,[3],inactive
same,inhibition,[11],inactive
CN1C(C(=O)/C=C/c2cn(-c3ccccc3)nn2)=C(O)c2ccccc2S1(=O)=O,viability at 20 µM,[1],94.2%
same,inhibition at 10 µM,[2],56.9%
same,inhibition at 10 µM,[5],24%
same,inhibition at 10 µM,[4],31.9%
CN1C(C(=O)/C=C/c2cn(-c3ccc(F)cc3)nn2)=C(O)c2ccccc2S1(=O)=O,viability at 20 µM,[1],95.3%
same,inhibition at 10 µM,[2],43.9%
same,inhibition,[3],inactive
same,inhibition at 10 µM,[4],58.9%
Cc1ccc(-c2cc(C(F)(F)F)nn2-c2ccc(S(N)(=O)=O)cc2)cc1 [CELECOXIB],inhibition at 10 µM,[2],31.1%
same,inhibition at 10 µM,[5],37.4%
same,inhibition at 10 µM,[4],20.1%
CN1C(C(=O)/C=C/c2cn(CC(=O)Nc3cccc(F)c3)nn2)=C(O)c2ccccc2S1(=O)=O,viability at 20 µM,[1],96.5%
same,inhibition,[6],Dose-dependent effect
same,inhibition,[7],Dose-dependent effect
same,inhibition,[8],inactive
same,inhibition,[9],Dose-dependent effect
same,inhibition,[10],Active
same,inhibition at 10 µM,[2],69.5%
same,inhibition at 10 µM,[5],70.7%
same,inhibition at 10 µM,[4],48.2%
CN1C(C(=O)/C=C/c2cn(-c3cccc(Cl)c3)nn2)=C(O)c2ccccc2S1(=O)=O,viability at 20 µM,[1],96%
same,inhibition at 10 µM,[2],37.3%
same,inhibition,[3],inactive
same,inhibition at 10 µM,[4],5.4%
CN1C(C(=O)/C=C/c2cn(CC(=O)Nc3ccc(F)cc3)nn2)=C(O)c2ccccc2S1(=O)=O,viability at 20 µM,[1],92.5%
same,inhibition at 10 µM,[2],42.4%
same,inhibition at 10 µM,[5],73.4%
same,inhibition at 10 µM,[4],41.4%
CN1C(C(=O)/C=C/c2cn(-c3ccc(C(F)(F)F)cc3)nn2)=C(O)c2ccccc2S1(=O)=O,viability at 20 µM,[1],96.6%
same,inhibition at 10 µM,[2],17.7%
same,inhibition,[3],inactive
same,inhibition at 10 µM,[4],12.7%
CN1C(C(=O)/C=C/c2cn(-c3ccccc3F)nn2)=C(O)c2ccccc2S1(=O)=O,viability at 20 µM,[1],96.1%
same,inhibition at 10 µM,[2],40.2%
same,inhibition,[3],inactive
same,inhibition,[11],inactive
COc1ccc(NC(=O)Cn2cc(/C=C/C(=O)C3=C(O)c4ccccc4S(=O)(=O)N3C)nn2)cc1,viability at 20 µM,[1],94.5%
same,inhibition at 10 µM,[2],49.8%
same,inhibition at 10 µM,[5],62.9%
same,inhibition at 10 µM,[4],64.8%
CN1C(C(=O)/C=C/c2cn(CC(=O)Nc3ccc(Cl)c(C(F)(F)F)c3)nn2)=C(O)c2ccccc2S1(=O)=O,viability at 20 µM,[1],94.3%
same,inhibition,[6],Dose-dependent effect
same,inhibition,[7],Dose-dependent effect
same,inhibition,[8],inactive
same,inhibition,[9],Dose-dependent effect
same,inhibition,[10],Active
same,inhibition at 10 µM,[2],93.6%
same,inhibition at 10 µM,[5],93.2%
same,inhibition at 10 µM,[4],88.4%
CN1C(C(=O)/C=C/c2cn(-c3cc([N+](=O)[O-])ccc3Cl)nn2)=C(O)c2ccccc2S1(=O)=O,viability at 20 µM,[1],94.3%
same,inhibition at 10 µM,[2],61.8%
same,inhibition at 10 µM,[5],52.5%
same,inhibition at 10 µM,[4],67.1%
CN1C(C(=O)/C=C/c2cn(-c3cccc([N+](=O)[O-])c3)nn2)=C(O)c2ccccc2S1(=O)=O,viability at 20 µM,[1],92.6%
same,inhibition at 10 µM,[2],25.6%
same,inhibition,[3],inactive
same,inhibition at 10 µM,[4],30.7%
CN1C(C(=O)/C=C/c2cn(-c3ccc(F)c(Cl)c3)nn2)=C(O)c2ccccc2S1(=O)=O,viability at 20 µM,[1],94.3%
same,inhibition at 10 µM,[2],16.3%
same,inhibition,[3],inactive
same,inhibition,[11],inactive
CN1C(C(=O)/C=C/c2cn(CC(=O)Nc3ccc(F)cc3Br)nn2)=C(O)c2ccccc2S1(=O)=O,viability at 20 µM,[1],93.6%
same,inhibition at 10 µM,[2],63.8%
same,inhibition at 10 µM,[5],59.8%
same,inhibition at 10 µM,[4],65.4%
CN1C(C(=O)/C=C/c2cn(CC(=O)Nc3ccccc3)nn2)=C(O)c2ccccc2S1(=O)=O,viability at 20 µM,[1],96.2%
same,inhibition at 10 µM,[2],49.3%
same,inhibition at 10 µM,[5],33.3%
same,inhibition at 10 µM,[4],76.7%
CN1C(C(=O)/C=C/c2cn(-c3ccccc3Br)nn2)=C(O)c2ccccc2S1(=O)=O,viability at 20 µM,[1],94.4%
same,inhibition at 10 µM,[2],45.9%
same,inhibition at 10 µM,[5],13.7%
same,inhibition at 10 µM,[4],16.2%
CCCCCCCCn1cc(/C=C/C(=O)C2=C(O)c3ccccc3S(=O)(=O)N2C)nn1,viability at 20 µM,[1],92.3%
same,inhibition at 10 µM,[2],64.7%
same,inhibition at 10 µM,[5],2.9%
same,inhibition at 10 µM,[4],40.9%
